Key:
[1] = test system: lambs with acute pulmonary hypertension; conditions: cited from earlier work; for effect on mean arterial pressure / pulmonary vasodilation / transpulmonary cGMP release / systemic arterial oxygenation: inhaled microparticles, awake lambs; for effect on mean arterial pressure / pulmonary vasodilation / transpulmonary cGMP release: U-46619 infusion
[2] = target: T1, soluble guanylate cyclase (sGC) (Homo sapiens, UniProt Q02108+Q02153); test: sGC-HEK-cGMP assay (run with SNP incubation); assay type: cell-based; conditions: for EC50: full concentration-response curve, with SNP incubation, read-out: HEK assay EC50-unconstrained; for EC50 / Emax: top not fitted to 100%; for Emax: maximum activity from full concentration-response curve, relative to positive control BAY 41-2272, read-out: HEK assay Emax-unconstrained (Percent); for Emax at 1 µM: test compound 1 μM, read-out: HEK assay (Percent Emax at 1 μM); for Emax at 1 µM / Emax at 10 µM / Emax at 30 µM: 10 μM SNP, Emax = 100% is BAY 41-2272 at 10 μM in the presence of 100 μM SNP; for Emax at 10 µM: test compound 10 μM, read-out: HEK assay (Percent Emax at 10 μM); for Emax at 30 µM: test compound 30 μM, read-out: HEK assay (Percent Emax at 30 μM)
T1 construct: endogenously expressing soluble guanylate cyclase (sGC); endogenous in cells; host or cells: HEK293
T1 sequence (Q02153 1-619): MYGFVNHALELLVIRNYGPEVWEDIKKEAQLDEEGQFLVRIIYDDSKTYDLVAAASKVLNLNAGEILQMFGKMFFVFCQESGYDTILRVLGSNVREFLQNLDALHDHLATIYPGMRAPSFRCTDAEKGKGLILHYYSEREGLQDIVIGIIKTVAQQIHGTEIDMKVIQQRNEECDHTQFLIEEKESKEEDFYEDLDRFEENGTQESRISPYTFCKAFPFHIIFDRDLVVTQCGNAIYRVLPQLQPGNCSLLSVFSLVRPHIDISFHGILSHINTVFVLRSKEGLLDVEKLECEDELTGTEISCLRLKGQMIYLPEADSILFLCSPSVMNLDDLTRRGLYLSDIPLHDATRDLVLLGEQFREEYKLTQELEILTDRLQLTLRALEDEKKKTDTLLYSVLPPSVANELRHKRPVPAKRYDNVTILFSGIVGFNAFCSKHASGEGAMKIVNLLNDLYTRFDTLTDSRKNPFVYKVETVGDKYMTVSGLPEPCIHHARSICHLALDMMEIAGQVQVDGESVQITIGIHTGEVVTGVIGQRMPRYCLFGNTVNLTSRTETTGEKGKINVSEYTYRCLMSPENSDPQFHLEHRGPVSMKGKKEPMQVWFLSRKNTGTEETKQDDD
T1 sequence (Q02108 1-690): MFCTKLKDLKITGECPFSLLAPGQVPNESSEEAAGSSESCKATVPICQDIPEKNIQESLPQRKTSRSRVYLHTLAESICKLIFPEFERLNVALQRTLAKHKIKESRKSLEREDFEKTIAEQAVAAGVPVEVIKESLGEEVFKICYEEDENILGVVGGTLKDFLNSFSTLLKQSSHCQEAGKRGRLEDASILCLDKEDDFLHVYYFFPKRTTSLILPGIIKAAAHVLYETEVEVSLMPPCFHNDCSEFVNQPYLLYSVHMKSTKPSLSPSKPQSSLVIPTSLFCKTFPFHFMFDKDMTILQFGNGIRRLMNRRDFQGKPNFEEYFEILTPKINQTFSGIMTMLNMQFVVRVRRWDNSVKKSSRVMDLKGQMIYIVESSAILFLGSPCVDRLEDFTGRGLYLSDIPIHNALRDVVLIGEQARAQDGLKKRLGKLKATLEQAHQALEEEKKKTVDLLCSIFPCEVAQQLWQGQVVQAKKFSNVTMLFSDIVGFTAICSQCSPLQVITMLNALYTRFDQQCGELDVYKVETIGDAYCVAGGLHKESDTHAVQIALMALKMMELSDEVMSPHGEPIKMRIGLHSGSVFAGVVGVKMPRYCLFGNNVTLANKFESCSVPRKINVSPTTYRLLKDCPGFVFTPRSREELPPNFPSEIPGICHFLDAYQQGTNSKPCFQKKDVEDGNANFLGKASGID
Experimental: (Assay Run with SNP Incubation)
Human embryonic kidney cells (HEK293), endogenously expressing soluble guanylate cyclase (sGC), were used to evaluate the activity of test compounds. Compounds stimulating the sGC receptor should cause an increase in the intracellular concentration of cGMP. HEK 293 cells were seeded in Dulbecco's Modification of Eagle's Medium supplemented with fetal bovine serum (10% final) and L-glutamine (2 mM final) in a 200 μL volume at a density of 1×10^5 cells/well in a poly-D-lysine coated 96 well flat bottom plate and grown overnight at 37° C. Medium was aspirated and cells were washed with 1× Hank's Buffered Saline Salt Solution (200 μL). Cells were then incubated for 15 minutes at 37° C. with 200 μL of a 0.5 mM 3-isobutyl-1-methylxanthine (IBMX) solution. Test article and sodium nitroprusside solutions (x μM concentration for test article solution and 10 μM concentration for SNP solution; wherein x is one of the following concentrations);
were then added to the assay mixture (2 μL each) and the resulting mixture incubated at 37° C. for 10 minutes. After the 10 minute incubation, the assay mixture was aspirated and 0.1M HCl (200 μL) was added to the cells. The plate was incubated at 4° C. for 30 minutes in the 0.1M HCl to stop the reaction and lyse the cells. The plates were then centrifuged at 1,200 g for 5 minutes at room temperature. Supernatants were collected and transferred to a new flat bottom 96 well plate for analysis by HPLC-MS. Vehicle controls were carried out using DMSO (1%) solutions. A known sGC stimulator, BAY 41-2272, was used as the positive control. Samples were diluted with an equal volume of 1 M Ammonium Acetate (pH 7) to neutralize samples for better chromatography. A 2× cGMP standard solution was prepared in 0.1 M HCl and then diluted with an equal volume of 1 M Ammonium Acetate, with the following final concentrations in nM: 1024, 512, 256, 128, 64, 32, 16, 8, 4, 2, 1. cGMP concentrations in the test plates were determined from each sample using the LC/MS conditions shown in Table 2 below and the calculated cGMP standard curve. EC50 values were calculated from concentration-response curves generated with GraphPad Prism Software.
The biological activities of some of the compounds of Formula I determined with the sGC—HEK assay with SNP incubation are summarized in Tables 3A and 3B.

[3] = target: T2, Human soluble guanylate cyclase enzyme (hsGC) (Homo sapiens, UniProt Q02108+Q02153); test: Purified human sGC enzyme synergy assay in the presence of sodium nitroprusside (SNP); assay type: biochemical; conditions: 30 μM compound in the presence of 1 μM SNP; fold increase over DMSO controls
T2 construct: purchased Enzo Inc. ALX-201-177
T2 sequence (Q02153 1-619): T1 sequence (Q02153 1-619)
T2 sequence (Q02108 1-690): T1 sequence (Q02108 1-690)
Experimental: Human soluble guanylate cyclase enzyme (hsGC) obtained from Enzo Inc. (P/N: ALX-201-177) was used to evaluate the activity of test compounds. The assay reactions contained 0.1 M Tris (pH 8.0), 0.5 mg/mL BSA (pH 8.0), 2 mM DTT, 2 mM MgCl2, 300 μM GTP, 1 mM 3-isobutyl-1-methylxanthine (IBMX) and 5 ng human soluble guanylate cyclase enzyme. Test compounds in DMSO were then added (2 μL, 10 or 30 μM final concentration) and incubated (water, 200 μL, 96-well plate format) at 37° C. for 30 minutes. The controls were carried out using 2 μL DMSO. After the 30 minute incubation, the reaction was stopped with the addition of 200 μL of cold methanol. The plate was then centrifuged at 3,200 rpm for 10 minutes at room temperature. Supernatants (200 μL) were collected and transferred to a new 96 well plate for analysis by HPLC LC/MS/MS.
An 8 point cGMP (Sigma-Aldrich P/N: G6129) standard curve was prepared in assay buffer ranging from 0.156-20 μM. Samples for the cGMP standard curve were then diluted with an equal volume of methanol resulting in final cGMP concentrations of 0.078-10 μM.
The cGMP standard curve was generated using GraphPad Prism Software.
Calculations: Specific Activity was determined by the amount of cGMP formed (nmoles) per mg of sGC per min. Enzyme “fold-change” was calculated by dividing Specific Activity for test compounds by Specific Activity of DMSO controls. […]

[4] = test system: Guinea pig tracheal smooth muscle; test: Electrical field stimulated guinea pig tracheal smooth muscle contraction (ex vivo); conditions: pooled from three experiments; 95% CI 0.78-0.94; read-out: IC50, inhibition of EFS-induced tracheal smooth muscle contraction
Text: Animals: Guinea pig, Dunkin Hartley, male, Full barrier-bred and certified free of specific micro-organisms on receipt 525-609 g on the experimental day, Harlan UK Ltd. Guinea pigs were housed in a group of 4 in solid-bottomed cages with Gold Flake bedding in a controlled environment (airflow, temperature and humidity). Food (FD1, Special Diet Services) and water were provided ad libitum.
On each experimental day, a guinea pig was killed by exposure to a rising concentration of CO2 and the trachea removed. The trachea was cleaned of extraneous tissue and cut open longitudinally in a line opposite the muscle, opened out and cut into strips 2-3 cartilage rings wide. […] Tissues were washed with Kreb's buffer and stimulated using the previously determined sub-maximal voltage for 1 hour to establish a stable baseline contraction prior to assessment of compound activity. *“Novel and Versatile Superfusion System. […]
A cumulative dose response curve (DRC) to each test substance was then performed and changes in smooth muscle contraction measured. The effect of each test substance in each experiment was expressed as a percentage inhibition of the baseline contraction, normalized to the relevant vehicle controls. […] The data from all three experiments was pooled, the DRC plotted, and the test substance potency and efficacy determined.

| SMILES | effect on mean arterial pressure [1] | pulmonary vasodilation [1] | transpulmonary cGMP release [1] | EC50 [2] [nM] | Emax [2] [%] | Emax at 1 µM [2] [%] | Emax at 10 µM [2] [%] | Emax at 30 µM [2] [%] | further results |
| --- | --- | --- | --- | --- | --- | --- | --- | --- | --- |
| Nc1nc(-c2nn(Cc3ccccc3F)c3ncccc23)ncc1C1CC1 [BAY 41-2272] | without significant effect | dose dependent pulmonary vasodilation | increased transpulmonary cGMP release |  |  |  |  |  |  |
| Nc1nc(-c2nn(Cc3ccccc3F)c3ncccc23)nc(N)c1N1CCOCC1 [BAY 41-8543] | without significant effect | dose dependent pulmonary vasodilation | increased transpulmonary cGMP release |  |  |  |  |  | magnitude and duration of pulmonary vasodilation induced by iNO ([1]; after inhaling microparticles): augmented; systemic arterial oxygenation [1]: increased systemic arterial oxygenation |
| O=C(O)CCCCN(CCc1ccccc1OCc1ccc(CCc2ccccc2)cc1)Cc1ccc(C(=O)O)cc1 [BAY 58-2667] | without significant effect | dose dependent pulmonary vasodilation | increased transpulmonary cGMP release |  |  |  |  |  | pulmonary vasodilation and transpulmonary cGMP release after treatment with ODQ ([1]; inhaled microparticles after intravenous ODQ): greatly enhanced; systemic arterial oxygenation [1]: increased systemic arterial oxygenation |
| Nc1ccnc(-c2cc(-c3ccon3)n(Cc3ccsc3)n2)n1 [Compound I-1] |  |  |  | 1000 to 5000 | 60 to 80 | 20 to 40 | 40 to 60 | 60 to 80 | Enzyme Activity (increase at 30 μM with SNP) [3]: D (D = 10 or <20 fold increase) |
| Oc1nc(-c2cc(-c3ccon3)n(Cc3ccsc3)n2)ncc1F [Compound I-2] |  |  |  | 500 to 1000 | 40 to 60 | 20 to 40 | 40 to 60 | 40 to 60 | Enzyme Activity (increase at 30 μM with SNP) [3]: D (D = 10 or <20 fold increase) |
| Oc1nc(-c2cc(-c3ccon3)n(Cc3sccc3F)n2)ncc1F [Compound I-3] |  |  |  | 10 to 100 | 40 to 60 | 40 to 60 | 40 to 60 | 60 to 80 |  |
| Oc1nc(-c2cc(-c3ccon3)n(Cc3cccs3)n2)ncc1F [Compound I-4] |  |  |  | 5000 to 10000 | 60 to 80 | 0 to 10 | 40 to 60 | 40 to 60 |  |
| CC(C)[N+]1(C)[C@@H]2CC[C@H]1CC(OC(=O)C(CO)c1ccccc1)C2 (stereo partly shown) [Ipratropium bromide] |  |  |  |  |  |  |  |  | IC50 [4]: 0.86 nM |
| O=c1onc2cnc3ccccc3n12 [ODQ, 1H-[1,2,4]oxadiazolo[4,3-a]quinoxalin-1-one] |  |  |  |  |  |  |  |  | pulmonary vasodilator effect of iNO ([1]; intravenous administration): markedly reduced |
